This is an account of results in patent US20020103172A1, “VITAMIN D3 DERIVATIVES” (priority 1996, published 2002).

For one series, the system named is mouse spleen lymphocytes. Description: Mixed lymphocyte reaction assay (MLR), allogeneic stimulation, 3H-thymidine incorporation. The class given is cell-based. The settings on record: for MLR rel.: ratio between IC50 of 1,25(OH)2D3 and IC50 of the compound, 72 hours incubation, 3H-thymidine incorporation, value >1 = more active than 1,25(OH)2D3. On the procedure: An in vitro assay for the rating of test compounds for immunosuppressive potency is the mixed lymphocyte reaction assay, “MLR”, measuring the allogeneic stimulation of mouse spleen lymphocytes: lymphocytes, obtained from the spleens of BALB/c and CB6F1 mice, are stimulated by co-cultivating 5×10^6/ml cells from BALB/c mice (responders) with 7.5×10^6/ml cells from CB6F1 mice (inducers). The mixed cultures of lymphocytes are incubated with the test compounds for 72 hours. Cellular DNA-synthesis is assessed by the incorporation of ^3H-thymidine in the DNA.

The test system of series [1] is calcium metabolism. Kind of series: Calcemic activity in rats in vivo. The settings on record: calcemic activity relative to 1,25(OH)2D3, low values preferred.
Protocol: (§1) The calcemic activity of the compounds was determined in rats in vivo, as previously described (Binderup, L., Bramm, E., Biochem. Pharmacol. 37, 889-895 (1988)).
The test system of series [2] is HaCaT, a spontaneously immortalized, non-tumorigenic human skin keratinocyte cell line. Description: HaCaT antiproliferative assay measuring 3H-thymidine uptake. The class given is cell-based. Particulars: for potency in the HaCaT-assay (psoriasis model), in words: compared with 1,25(OH)2D3; for HaCaT rel.: ratio between IC50 of 1,25(OH)2D3 and IC50 of the compound, 50% inhibition of 3H-thymidine incorporation, value >1 = more active than 1,25(OH)2D3. From the text: A useful assay for the rating of test compounds for antiproliferative activity in skin cells, e.g. antipsoriatic effect, is the in vitro assay using HaCaT, a spontaneously immortalized, non-tumorigenic human skin keratinocyte cell line (Mørk Hansen, C. et al., J. Invest. Dermatol. 1, 44-48 (1996)), measuring ^3H -thymidine uptake.

In series [3] the test system is calcium metabolism. Particulars: rat, in vivo.
Protocol: as §1

SMILES strings stand for the structures. Like-named read-outs stand apart in the source and are kept apart here.

As for `C=C1C(=CC=C2CCCC3(C)C(C(C)CCCCC(O)(CC)CC)=CCC23)CC(O)CC1O` [Compound 107, 1(S),3(R)-Dihydroxy-20(R)-(5-ethyl-5-hydroxyhept-1-yl)-9,10-seco-oregna-5(Z),7(E),10(19),16-tetraene], in the series with mouse spleen lymphocytes, the “immunosuppressive activity (MLR), in words” value was “potent effects” and the MLR rel. stood at 5. For the same compound, the Calc. rel. in the series on calcium metabolism [1] is 0.54. Further, in series [2], the “potency in the HaCaT-assay (psoriasis model), in words” value is given as “considerably more potent than 1,25(OH)2D3” and the HaCaT rel. worked out at 43.
In the case of `C=C1C(=CC=C2CCCC3(C)C(C(C)C=CC=CC(O)(CC)CC)=CCC23)CC(O)CC1O` [Compound 111, 1(S),3(R)-Dihydroxy-20(R)-(5-ethyl-5-hydroxyhepta-1(E),3(E)-dien-1-yl)-9,10-seco-pregna-5(Z),7(E),10(19)16-tetraene], in the series with mouse spleen lymphocytes, the “immunosuppressive activity (MLR), in words” value is on record as “potent effects” and the MLR rel. was found to be 6.5. In addition, the Calc. rel. in the series with calcium metabolism [1] was 1.47. Besides, in series [2], the “potency in the HaCaT-assay (psoriasis model), in words” value was “considerably more potent than 1,25(OH)2D3” and the HaCaT rel. is given as 51.
For the compound `C=C1/C(=C\C=C2/CCC[C@]3(C)[C@@H]([C@H](C)CCCC(C)(C)O)CC[C@@H]23)C[C@@H](O)C[C@@H]1O` [1,25, 1α,25-dihydroxy-vitamin D3, reference compound], the MLR rel. with mouse spleen lymphocytes stood at 1. In the series with calcium metabolism [3], the Calc. rel. is on record as 1. Moreover, the HaCaT rel. in series [2] was found to be 1.
